Results as given in patent US8729026B2, “Method for inhibiting autophagy of motor neurons” (China Medical University, priority 2012, dated 2014).

Key:
[1] = Phase I metabolism assay, dog hepatic microsomes, LC-MS/MS metabolite identification; format: in vitro ADME; conditions: butylidenephthalide 2 mM, dog hepatic microsomes 0.5 mg/mL, NADPH, 37° C., 60 minutes
From the text: (§1) It has been known that the medicine metabolic pathway within an organism's liver can be primarily divided into phase I and phase II metabolism. Phase I metabolism occurs mainly by the redox reaction or hydrolysis reaction of medicine, and phase II metabolism occurs mainly by […]. This example simulated the phase I and II metabolism of butylidenephthalide that occur within an organism's liver by respectively mixing butylidenephthalide with hepatic microsomes or cryopreserved hepatocytes in vitro, and the products in the reaction solution were analyzed by liquid chromatograph-tandem mass spectrometer (LC-MS/MS) to identify the metabolites and the metabolic profile. The experimental steps were as follows:
(§2) Butylidenephthalide (2 mM) was mixed respectively with K3PO4 buffer solution (100 mM, pH7.4) containing human, rats or dogs hepatic micrsomes (0.5 mg/mL). The mixture was maintained at 37° C. for 10 minutes, and then pre-warmed cofactors (NADPH (2 mM) and MgCl2 (3 mM)) were added thereto and the mixture was incubated at 37° C. for 60 minutes. Thereafter, 3-fold volume of acetonitrile containing 0.1% formic acid was added to the mixture to terminate the reaction. The mixture was centrifuged at 13000 rpm for 5 minutes, and the supernatant was then collected and analyzed by LC-MS/MS to identify the metabolites. […]

[2] = test system: SOD1-G93A transgenic mice; assay: BBB Locomotor Rating Scale of hind limbs of SOD1-G93A transgenic mice; format: in vivo, mouse; conditions: oral, 500 mg/kg-body weight once daily from 60 days of age; normal mice 21 points
Description: SOD1-G93A transgenic mice (60-day-old) were treated with butylidenephthalide by oral administration, with a dosage of 500 mg/kg-body weight once daily. After the mice were treated for 30 days, the hind limbs of the mice were examined by BBB scale (Basso, Beattie, and Bresnahan (BBB) Locomotor Rating Scale). The BBB scale of the hind limbs of normal mice was 21 points, while the BBB scale of disease-progressed SOD1-G93A transgenic mice decreased from 21 to 0 points, wherein the lower scale represents a more severe action disorder in the mice. BBB scale is used to record the drug efficiency.

[3] = Phase II metabolism assay, rat cryopreserved hepatocytes, LC-MS/MS metabolite identification; format: in vitro ADME; conditions: butylidenephthalide 50 μM, 37° C., 6 hours
From the text: as §1
(§3) William's E medium containing 5×10^5 thawed human, rat or dog hepatocytes were respectively added into a 12-well culture dish, and the cells were cultured for 6 hours. Then, 0.5 mL of butylidenephthalide (50 μM) was added into the culture dish. After the cells were incubated at 37° C., 95% relative humidity and 5% CO2 for 6 hours, 2 mL of acetonitrile (100%) was added to terminate the reaction. The sample was collected, mixed adequately, and centrifuged at 45000 g, 4° C. for 10 minutes. The supernatant was then collected, dried, and analyzed by LC-MS/MS to identify the metabolites. […]

[4] = Phase II metabolism assay, dog cryopreserved hepatocytes, LC-MS/MS metabolite identification; format: in vitro ADME; conditions: butylidenephthalide 50 μM, 37° C., 6 hours
From the text: as §1, §3

[5] = test system: SOD1-G93A transgenic mice; assay: Survival of SOD1-G93A transgenic mice (amyotrophic lateral sclerosis model); format: in vivo, mouse; conditions: 60-day-old SOD1-G93A transgenic mice, oral, 500 mg/kg-body weight once daily; for Survival days: n = 8, 500 mg/kg
From the text: It has been known that about 20% of amyotrophic lateral sclerosis patients were associated with mutations in the gene that encodes Cu/Zn superoxide dismutase enzyme (SOD1), and G93A was the major mutation site. […] A SOD1-G93A transgenic mouse will show the symptoms of amyotrophic lateral sclerosis within about 90±5 days postnatal and will die within about 125±5 days postnatal.
This example used the above SOD1-G93A transgenic mice as the object of study to perform in vivo analysis. SOD1-G93A transgenic mice (60-day-old) were treated with butylidenephthalide (purchased from ECHO Chemical) by oral administration, with a dosage of 500 mg/kg-body weight once daily, wherein the unit “mg/kg-body weight” means the dosage required per kg-body weight.

spinal motor neurons = assay: Histochemical staining (hematoxylin and eosin): count of spinal motor neurons of SOD1-G93A transgenic mice; format: in vivo, mouse; conditions: spinal cord, mice sacrificed in extremis, oral 500 mg/kg-body weight once daily
Description: SOD1-G93A transgenic mice (60-day-old) were treated with butylidenephthalide by oral administration, with a dosage of 500 mg/kg-body weight once daily. The SOD1-G93A transgenic mice in the experimental group were sacrificed in extremis, and the spinal cord was collected to perform hematoxylin and eosin stain. The number of motor neurons in the spinal cord was observed and counted by using a microscope, and the data was compared with that of the untreated control group.

NSCs (neural stem cells) = assay: Cellular experiment: H2O2-stimulated autophagy of NSCs, LC3-II by Western blotting; format: cell-based, mouse; conditions: 10 μg/mL butylidenephthalide for 12 hours, then H2O2 (2500 μM/mL) for 12 hours
Description: Cellular experiment was performed by using NSCs (neural stem cells) which can differentiate into mouse motor neurons to imitate mouse motor neurons.
NSCs were incubated in a culture dish (10 cm in diameter). The cells were washed with PBS when grown to a density of 60% confluence, and treated with different concentrations of butylidenephthalide for 12 hours. The cells were then treated with H2O2 (2500 μM/mL) for 12 hours to stimulate the autophagy of cells. Then, the cells were collected and the proteins were extracted, and the protein expression level of LC3-II in NSC was analyzed by SDS-PAGE and Western blotting.

[6] = Phase II metabolism assay, human cryopreserved hepatocytes, LC-MS/MS metabolite identification; format: in vitro ADME; conditions: butylidenephthalide 50 μM, 37° C., 6 hours
From the text: as §1, §3

LC3-II = assay: Western blotting of autophagy biomarker LC3-II in spinal cord of SOD1-G93A transgenic mice; format: in vivo, mouse; conditions: compared with untreated control; oral 500 mg/kg-body weight once daily, sacrificed in extremis; β-actin internal control
Description: SOD1-G93A transgenic mice (60-day-old) were treated with butylidenephthalide by oral administration, with a dosage of 500 mg/kg-body weight once daily. It has been indicated by research that SOD1-G93A transgenic mice lost its spinal motor neurons because of the significant increase of autophagy during the last phase of amyotrophic lateral sclerosis (which can be seen in In vivo optical imaging of motor neuron autophagy in a mouse model of amyotrophic lateral sclerosis. Autophagy 7:9, 1-8; September 2011, which is entirely incorporated hereinto by reference). Therefore, in this example, the SOD1-G93A transgenic mice in experimental group were sacrificed in extremis to collect their spinal cord, and the proteins were extracted from the spinal cord to perform Western blotting and to analyze the protein biomarker of autophagy, LC3-II, which was used to determine whether autophagy occurred in the lumbar spinal motor neurons of the mice, wherein β-actin was used as an internal control.

[7] = Phase I metabolism assay, human hepatic microsomes, LC-MS/MS metabolite identification; format: in vitro ADME; conditions: butylidenephthalide 2 mM, human hepatic microsomes 0.5 mg/mL, NADPH, 37° C., 60 minutes
From the text: as §1, §2

[8] = Phase I metabolism assay, rat hepatic microsomes, LC-MS/MS metabolite identification; format: in vitro ADME; conditions: butylidenephthalide 2 mM, rat hepatic microsomes 0.5 mg/mL, NADPH, 37° C., 60 minutes
From the text: as §1, §2

## CCCC=C1OC(=O)c2ccccc21 [butylidenephthalide]
[1]
  metabolites produced (phase I metabolism): compounds (2) to (9)
[2]
  BBB scale of the hind limbs, after 135 days (decreased rapidly): 16 to 0 points
  BBB scale of the hind limbs, from 125 to 135 days (decreased slowly): 21 to 16 points
[3]
  metabolites produced (phase II metabolism): compounds (11) to (14)
[4]
  metabolites produced (phase II metabolism): compounds (11) to (14)
[5]
  life lengthened as compared to untreated control group: about 22±2 days
  Survival days: about 149±4.39 days
[5]; listed as n-BP
  Survival days: 149 ± 4.39 days
Spinal motor neurons; control group 3 ± 3.1
  The number of motor neurons: 24
Spinal motor neurons; control group 3 ± 3.1, listed as n-BP
  The number of motor neurons: 24 ± 4.2
NSCs (neural stem cells)
  protein expression level of LC3-II in NSC: decrease the protein expression level of LC3-II
[6]
  metabolites produced (phase II metabolism): compounds (11) to (14)
LC3-II
  protein expression level of LC3-II and pLC3-II in cervical, thoracic and lumbar spinal cord: significantly decreased
[7]
  metabolites produced (phase I metabolism): compounds (2) to (9)
[8]
  metabolites produced (phase I metabolism): compounds (2) to (9)
